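In this assay, cells in 96-well plates receive the compound at five concentrations for 48 hours. Endpoints are linearly interpolated between the surrounding concentrations. Here, GI50 denotes the concentration required for 50% inhibition of growth. TGI denotes the concentration required for complete inhibition of growth.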
Tests used:
Assay in all cases: growth of human tumour cells (NCI), 48 h
EKVX NSCLC = test system: EKVX NSCLC
MDA-MB-435 = test system: MDA-MB-435
NCI-H460 lung = test system: NCI-H460 lung
NCI-H522 lung = test system: NCI-H522 lung
OVCAR-8 ovarian = test system: OVCAR-8 ovarian
SF-268 CNS = test system: SF-268 CNS
SF-295 CNS = test system: SF-295 CNS
SF-539 CNS = test system: SF-539 CNS
SNB-19 CNS = test system: SNB-19 CNS
U251 CNS = test system: U251 CNS

Structure (SMILES)	GI50 (EKVX NSCLC) [µM]	TGI (EKVX NSCLC) [µM]	GI50 (MDA-MB-435) [µM]	TGI (MDA-MB-435) [µM]	GI50 (NCI-H460 lung) [µM]	TGI (NCI-H460 lung) [µM]	GI50 (NCI-H522 lung) [µM]	TGI (NCI-H522 lung) [µM]	GI50 (OVCAR-8 ovarian) [µM]	TGI (OVCAR-8 ovarian) [µM]	GI50 (SF-268 CNS) [µM]	TGI (SF-268 CNS) [µM]	GI50 (SF-295 CNS) [µM]	TGI (SF-295 CNS) [µM]	GI50 (SF-539 CNS) [µM]	TGI (SF-539 CNS) [µM]	GI50 (SNB-19 CNS) [µM]	TGI (SNB-19 CNS) [µM]	GI50 (U251 CNS) [µM]	TGI (U251 CNS) [µM]
CCC[CH2][Sn]([CH2]CCC)([CH2]CCC)[O]c1ccc(Cl)cc1Cl	0.0948	0.302	0.139	0.29	0.0977	0.25	0.149	0.297	0.163	0.354	0.128	0.301	0.15	0.307	0.179	0.372	0.175	0.344	0.146	0.297
COc1ccc2c(c1)C(=O)c1c-2n(CCCN=[N+]=[N-])c(=O)c2cc(OC)c(OC)cc12	> 100	> 100	> 100	> 100	7.99	> 100	43.8	> 100	> 100	> 100	79.4	> 100	18	> 100	56.5	> 100	47	> 100	24.2	> 100
C=C(C)C(=O)O[C@H]1C[C@@]23O[C@@H]2CCC(=C[C@H]2OC(=O)C(=C)[C@H]12)COC3O (stereo not given in full)	–	> 100	–	> 100	–	> 100	–	30.7	–	> 100	–	> 100	–	> 100	–	> 100	–	> 100	–	> 100
CC(C(=O)c1ccccc1)C(c1ccccc1)N1CCOCC1 (stereo not given)	–	> 100	–	> 100	–	> 100	–	> 100	–	> 100	–	> 100	–	> 100	–	> 100	–	> 100	–	> 100
Cc1nc(SCC(=O)Nc2nc(-c3ccc(Cl)cc3)cs2)n(Nc2ccccc2)c1C	1.84	12.2	3.25	21.8	2.89	11	2.54	13.7	2.71	7.73	4.8	20.1	2.29	16.5	1.9	4.27	9.41	24.6	3.13	13
COc1cc(OC)cc(N(CCNC(C)C)c2ccc3ncc(-c4cnn(C)c4)nc3c2)c1	13.1	27	5.73	19	5.25	18.1	7.82	23.4	4.75	18.9	3.53	19	10.8	25.1	0.586	7.25	10.9	24.9	4.32	19.6
CC[N+](CC)=c1sc2c(s1)C(c1ccc(Cl)cc1)Oc1ccc(Cl)cc1-2 (stereo not given)	1.96	9.53	2.04	4.66	0.503	1.89	0.67	2.89	1.97	5.41	0.461	2.08	1.09	4.64	1.46	2.97	0.487	1.84	0.374	1.37
COC(=O)[C@@H](C)C[C@H](Cc1ccccc1)NC(=O)c1csc(CC[C@H](C(C)C)N(C)C(=O)[C@@H](NC(=O)[C@H]2CCCCN2C)C(C)C)n1	1.33	> 33.3	0.0407	0.17	0.381	> 14.5	0.0656	0.301	0.465	> 33.3	0.722	> 33.3	0.334	> 33.3	0.444	1.91	0.168	> 33.3	0.398	> 33.3
O=C(CO[N+](=O)[O-])Nc1ccc(C(=O)/C=C/c2ccc(Cl)cc2)cc1	15	74.6	2.96	11.2	12.7	54.9	2.31	8.37	3.24	14	2.62	11.7	5.82	29.2	2.52	8.81	4.11	18.4	1.48	3.15
COc1cccc(-c2nc3sccn3c2-c2ccnc(NCCCNS(=O)(=O)c3cccc(F)c3)c2)c1	2.99	> 100	2.29	5.71	4.04	> 100	2.11	8.41	2.42	18.9	3.26	> 100	2.37	7.48	3.87	> 100	5.6	> 100	4.77	> 100
COc1ccc(C(=O)/C=C/c2ccc(C)cc2)cc1OC	18.4	42.9	15.5	32	7.77	20.5	11.1	26.4	11.8	27.6	11.7	24.4	12.1	28.4	5.32	18.2	12.8	25.5	4.78	17.3
S=C(Nc1ccc(Br)cc1)Nc1ccc(Br)cc1	3.72	> 100	6.04	> 100	3.69	> 100	2.92	98.6	18.2	> 100	67.8	> 100	2.99	> 100	> 100	> 100	17.2	> 100	8.39	> 100
COc1cc(NC(N)=NCCC(C)(C)Oc2ccc(C(F)(F)F)cc2)ncc1C#N	1.45	2.85	1.73	3.17	1.72	3.39	1.47	2.9	1.79	3.54	1.72	3.31	1.57	2.99	1.8	3.26	1.84	3.3	1.79	3.22
